Assay results reported in patent US20200038474A1, “COMPOSITION, USE AND METHOD FOR TREATING NEURODEGENERATIVE DISEASES” (FUNDAÇÃO BUTANTAN, priority 2016, published 2020).

Tests used:
[1] = tested on: Experimental Autoimmune Encephalomyelitis; test: Experimental Autoimmune Encephalomyelitis (EAE) induced by MOG35-55, clinical signs scored 0 to 5; format: in vivo, female C57BL/6 mice
[2] = tested on: κ opioid receptor; conditions: literature report; cited from earlier work

Which “animals that reached clinical score 2” value ([1]; single dose of 50 μg/kg on the 5th day after immunization, 100% of saline controls reached a score between 3 and 5) does the source give for EFSPENCQGESQPC [Crotalphine] here?
Its value is 43%.

And the “severity of clinical signs” value ([1]; single dose of 50 μg/kg on the 5th day after immunization, vs saline control, n=8, p<0.05)?
Its value is “significantly decreased the severity of clinical signs”.

What about the “motor impairment in animal model of multiple sclerosis” value ([1]; summary statement) of the same sequence?
The value was “partially reverse the motor impairment”.

What about the antinociception [2] of the same sequence?
Its antinociception is “induces antinociception mediated by κ opioid receptor activation”.
